Test results published in the NIST ThermoML archive (doi:10.1007/s10765-008-0390-4).
Numbers after ± are expanded uncertainties.

Assays:
[1] = 101 kPa, Liquid
[2] = xn = mol fraction of the nth substance listed; details: 101 kPa, Liquid, x1 = 1

| mass density ([1]; 288.15 K) [kg/m3] | mass density ([1]; 293.15 K) [kg/m3] | mass density ([1]; 298.15 K) [kg/m3] | mass density ([1]; 303.15 K) [kg/m3] | mass density ([1]; 308.15 K) [kg/m3] | mass density ([1]; 313.15 K) [kg/m3] | mass density ([2]; 288.15 K) [kg/m3] | mass density ([2]; 293.15 K) [kg/m3] | mass density ([2]; 298.15 K) [kg/m3] | mass density ([2]; 303.15 K) [kg/m3] | mass density ([2]; 308.15 K) [kg/m3] | mass density ([2]; 313.15 K) [kg/m3] | SMILES |
| --- | --- | --- | --- | --- | --- | --- | --- | --- | --- | --- | --- | --- |
| 1498.08 ± 0.47 | 1488.64 ± 0.46 | 1479.15 ± 0.45 | 1469.61 ± 0.45 | 1460.03 ± 0.44 | 1450.41 ± 0.43 |  |  |  |  |  |  | ClC(Cl)Cl [trichloromethane] |
| 884.246 ± 0.15 | 878.918 ± 0.16 | 873.582 ± 0.16 | 868.233 ± 0.17 | 862.871 ± 0.17 | 857.498 ± 0.17 |  |  |  |  |  |  | c1ccccc1 [benzene] |
|  |  |  |  |  |  | 813.373 ± 0.24 | 809.573 ± 0.24 | 805.762 ± 0.25 | 801.923 ± 0.25 | 798.053 ± 0.25 | 794.147 ± 0.25 | CCCCO [butan-1-ol] + ClC(Cl)Cl |
| 813.373 ± 0.24 | 809.573 ± 0.24 | 805.762 ± 0.25 | 801.923 ± 0.25 | 798.053 ± 0.25 | 794.147 ± 0.25 |  |  |  |  |  |  | CCCCO [butan-1-ol] |
|  |  |  |  |  |  | 813.373 ± 0.24 | 809.573 ± 0.24 | 805.762 ± 0.25 | 801.923 ± 0.25 | 798.053 ± 0.25 | 794.147 ± 0.25 | CCCCO [butan-1-ol] + c1ccccc1 |
